Structures can show the parent of a compound that is named as a salt.
How the values were obtained:
[1] = molecular target: human cloned 5-HT6 receptors (Homo sapiens, UniProt P50406)
Sequence of human cloned 5-HT6 receptors (P50406 whole entry): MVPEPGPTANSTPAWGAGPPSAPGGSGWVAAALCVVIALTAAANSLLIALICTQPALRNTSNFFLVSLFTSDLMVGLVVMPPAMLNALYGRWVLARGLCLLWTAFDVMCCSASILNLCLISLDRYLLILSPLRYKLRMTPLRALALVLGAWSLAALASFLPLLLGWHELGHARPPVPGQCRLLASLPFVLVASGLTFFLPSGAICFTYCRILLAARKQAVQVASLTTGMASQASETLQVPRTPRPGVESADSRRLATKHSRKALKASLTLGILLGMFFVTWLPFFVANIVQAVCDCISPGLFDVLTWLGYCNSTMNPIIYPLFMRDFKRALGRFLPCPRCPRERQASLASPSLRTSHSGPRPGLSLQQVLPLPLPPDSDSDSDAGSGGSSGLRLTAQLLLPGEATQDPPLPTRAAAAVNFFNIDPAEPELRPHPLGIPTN

SMILES | Ki [1] | melting point
O=S(=O)(Nc1ccc2c(c1)C(C1CCNCC1)=CCO2)c1ccccc1 [Example 14, N(4-Piperidin-4-yl-2H-chromen-6-yl)benzenesulfonamide Hemihydrate] | 1 nM | –
O=S(=O)(Nc1ccc2c(c1)C(C1CCNCC1)=CCO2)c1ccc(Cl)cc1 [Example 15, 4-chloro-N-(4-piperidin-4-yl-2H-chromen-6-yl)benzenesulfonamide] | 2 nM | > 240 °C
O=S(=O)(Nc1ccc2c(c1)C(C1CCNCC1)=CCO2)c1cccc2ccccc12 [Example 16, N-(4-piperidin-4-yl-2H-chromen-6-yl)naphthalene-1-sulfonamide] | 2 nM | –
O=S(=O)(Nc1ccc2c(c1)C(C1CCNCC1)CCO2)c1ccccc1 (centres unmarked) [Example 23, N(4-Piperidin-4-dihydro-2H-chromen-6-yl)benzenesulfonamid Hydrochloride] | 12 nM | –

From US7534801B2, “Piperidinylchromen-6-ylsulfonamide compounds as 5-hydroxytryptamine-6 ligands” (Wyeth, priority 2003, dated 2009)
